ChEMBL document CHEMBL1201862, “PubChem BioAssay data set” (2004)
Several values for one entry are separate records, joined by “and”; a condition that tells them apart may be missing. Identical values can stand only once.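 Assay format: 96-well plates, 48-hour exposure. The concentration for 50% growth inhibition is given as GI50.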 Activity calls are given as the source filed them. Rule as the data show it: active = GI50 up to about 1.1 µM and inactive = higher. Where a SMILES comes first, the peptide text is derived from it. [ ]: non-standard residue; d: D form. The star is where a group is joined. Iva = CC[C](C)(N)C(=O)O; Boc = CC(C)(C)OC(=O)*; X54 = C1CCC(=NO*)C1

Key:
Assay in all cases: NCI tumour cell line growth inhibition, 48 h
A549 = test system: A549
CCRF-CEM = test system: CCRF-CEM
COLO 205 = test system: COLO 205
EKVX = test system: EKVX
HT-29 = test system: HT-29
K562 = test system: K562
LOX IMVI = test system: LOX IMVI
MCF7 = test system: MCF7
NCI-H23 = test system: NCI-H23
NCI-H460 = test system: NCI-H460
NCI-H522 = test system: NCI-H522
OVCAR-5 = test system: OVCAR-5
RPMI-8226 = test system: RPMI-8226
SF-268 = test system: SF-268
SK-MEL-5 = test system: SK-MEL-5
SNB-19 = test system: SNB-19
SW-620 = test system: SW-620
HCT-116 = test system: HCT-116
SK-OV-3 = test system: SK-OV-3

Measured: GI50

COC(=O)/C=C\Sc1ccn(/C=C\C(=O)OC)c(=S)n1
inactive: A549 22.1 µM | CCRF-CEM > 100 µM | COLO 205 66.5 µM | EKVX 26.2 µM | HT-29 22.2 µM | K562 38.5 µM | LOX IMVI 2.77 µM | MCF7 14.3 µM | NCI-H23 25.8 µM | NCI-H460 > 10 µM | NCI-H522 16.1 µM | OVCAR-5 38.5 µM | RPMI-8226 46 µM | SF-268 24.4 µM | SK-MEL-5 24.1 µM | SNB-19 21.8 µM | SW-620 26 µM

C/C(=N/NC(=O)c1ccncc1)C(F)(F)F
inactive: COLO 205 > 100 µM | HCT-116 > 100 µM | HT-29 > 100 µM | K562 > 100 µM | MCF7 > 100 µM | NCI-H23 > 100 µM | NCI-H460 > 10 µM | NCI-H522 > 100 µM | OVCAR-5 > 100 µM | RPMI-8226 > 100 µM | SK-MEL-5 > 100 µM | SK-OV-3 > 100 µM | SNB-19 > 100 µM

CC(Oc1ccc(Oc2cnc3ccc(Cl)cc3n2)cc1)C(=O)O (stereo not given)
inactive: A549 68.5 µM | CCRF-CEM > 74.1 µM | COLO 205 > 70 µM | EKVX > 100 µM | HCT-116 88.7 µM | LOX IMVI 51.8 µM | MCF7 37.3 µM and 84.3 µM | NCI-H23 > 100 µM | NCI-H460 60.4 µM and 19.6 µM | NCI-H522 32.7 µM | OVCAR-5 > 100 µM | SF-268 89.7 µM | SK-MEL-5 > 62.8 µM and 72.8 µM | SNB-19 > 100 µM | SW-620 > 99.8 µM

O=C1C(Cl)N(c2ccc(Cl)cc2)C1c1c[nH]c2ccccc12 (stereo not given)
inactive: A549 33.7 µM | CCRF-CEM 13 µM | COLO 205 22.5 µM | EKVX 16.9 µM | HCT-116 13.8 µM | HT-29 17.1 µM | K562 16.7 µM | NCI-H23 18.4 µM | NCI-H460 15 µM | NCI-H522 17.2 µM | RPMI-8226 20.6 µM | SF-268 26.2 µM | SK-MEL-5 15.5 µM | SK-OV-3 > 10 µM | SNB-19 18.2 µM | SW-620 26 µM

CCOC(=O)/C(C#N)=C\c1ccc(N(CCC(=O)O)CCC(=O)O)c(I)c1
inactive: A549 > 10 µM | CCRF-CEM > 10 µM | COLO 205 > 10 µM | EKVX > 10 µM | HCT-116 > 10 µM | HT-29 > 10 µM | K562 > 10 µM | LOX IMVI > 10 µM | MCF7 > 10 µM | NCI-H23 > 10 µM | NCI-H460 > 10 µM | NCI-H522 > 10 µM | RPMI-8226 > 10 µM | SF-268 > 10 µM | SK-MEL-5 > 10 µM | SK-OV-3 > 10 µM | SNB-19 > 10 µM | SW-620 > 10 µM

CCC(C)(NC(=O)C(C)NC(=O)OC(C)(C)C)C(=O)NC(C)C(=O)NC(C)(CC)C(=O)ON=C1CCCC1 (stereo not given) (Boc-A[Iva]A[Iva]-X54; configuration not given here)
inactive: CCRF-CEM > 100 µM | COLO 205 > 100 µM | HCT-116 > 100 µM | K562 31.1 µM | MCF7 > 100 µM | NCI-H23 > 100 µM | NCI-H460 > 100 µM | NCI-H522 > 100 µM | OVCAR-5 > 100 µM | RPMI-8226 > 100 µM | SK-MEL-5 > 100 µM | SK-OV-3 > 100 µM | SNB-19 > 100 µM

COc1ncnc2c(Cl)c(C(O)c3ccccc3)c(Cl)cc12 (stereo not given)
inactive: A549 34.8 µM | COLO 205 29.4 µM | EKVX 30.5 µM | HCT-116 17.9 µM | HT-29 30.1 µM | K562 14.9 µM | LOX IMVI 53.3 µM | MCF7 31.4 µM | NCI-H23 41.6 µM | NCI-H460 30.8 µM | NCI-H522 31.3 µM | OVCAR-5 60.5 µM | RPMI-8226 18.7 µM | SF-268 21 µM | SK-MEL-5 26.2 µM | SK-OV-3 19.5 µM | SNB-19 26.6 µM | SW-620 25.6 µM
